This note sets out measurements from article PMC6826616, “Topical 2′-Hydroxyflavanone for Cutaneous Melanoma” (Cancers, 2019).

Common to all, as to format: cell-based
The subject of one test is SK-MEL-24 cells. The experiment in a line: MTT cytotoxicity assay, SK-MEL-24. The following applies: Homo sapiens, Table 1, agent alone, read-out: IC50. An excerpt: (§1) We studied the growth-inhibitory effects of 2HF on the B16-F0 and B16-F10 murine melanoma cell lines as well as on the SK-MEL-24 human melanoma cell line. B16-F10 and SK-MEL-24 have been shown in previous studies to be highly resistant to treatment and much more invasive than B16-F0 [32]. […] The absorption value measured upon reduction of the MTT dye by functional mitochondria is an indirect measure of cell number that cannot distinguish inhibited cell proliferation from apoptotic or necrotic cell death. By counting viable (trypan-blue dye-excluding) cells using a hemacytometer, we verified that 2HF did indeed cause cell death.
(§2) Figure 1 Mouse and human melanoma cell survival following 2′-hydroxyflavanone (2HF) treatment.
(§3) The IC50 of 2HF on B16-F0, B16-F10, and SK-MEL-24 cells was determined by MTT cytotoxicity assay. Cells were harvested and Trypan Blue dye exclusion test was used to determine the number of viable cells present in a cell suspension using a hemocytometer. The cell suspension was diluted to 5 × 10^4 cells/mL with Dulbecco’s Modified Eagle’s Medium (DMEM) complete medium and 5000 cells/well were plated in 96-well plates. After 24 h incubation at 37 °C, cells were treated with 2HF concentrations ranging from 0–200 µM (8 replicates per plate). After 48 or 72 h incubation, 40 µL of MTT (5 mg/mL) solution was added. After 4 h incubation, the plate was centrifuged at 700× g for 5 min and medium was aspirated completely. Then, 50 µL DMSO was added to each well to dissolve the purple precipitate on the rocking platform for about 15 min. The absorbance was then measured at 490 nm using a 96-well microplate reader (Spectramax Plus, Molecular Devices, Inc, San Jose, CA, USA).

The next test has as its system B16-F10 cells. The experiment in a line: MTT cytotoxicity assay, B16-F10. The settings on record: Mus musculus, Table 1, agent alone, read-out: IC50.
Text: as §1, §2, §3
For orientation: Tetrazolium assays rely on reduction of a dye to a coloured formazan, in cell work by metabolically active cells.

Another test relates to B16-F0 cells. The experiment in a line: MTT cytotoxicity assay, B16-F0. The settings on record: Mus musculus, B16F0; Table 1, agent alone; read-out: IC50.
Text: as §1, §2, §3

As usually defined, the IC50 is the concentration that gives 50% inhibition. For the compound `COC1CCN(C(=O)c2cc(Cc3n[nH]c(=O)c4ccccc34)ccc2F)CC1` [PARP1i, AZD 2461, reference compound], the values for the IC50 with SK-MEL-24 cells, in the test on B16-F10 cells and in the test on B16-F0 cells were 55 ± 23.9 µM, 29.9 ± 28.5 µM and 16.5 ± 4.86 µM, respectively.
